In US20220132758A1, “INTRODUCTION OF ACTIVE SUBSTANCES AND/OR DYE INTO PLANT TISSUE” (priority 2018, published 2022):

Test system: bark beetle
Test: Imidacloprid-impregnated beech shaped pieces shot into bark beetle-infested spruce trees
Assay type: in vivo
Settings: 7% imidacloprid solution; 8 pieces per tree; after 3 weeks; bark 10 to 50 cm above the shooting sites
Description: 24 shaped pieces according to FIG. 1c, Z-. X-. Y-direction 45×13×3 mm, angle α 90°, angle β 60°, made of beech wood (Fagus sylvatica) were impregnated with a neonicotinoid, a 7% imidacloprid solution (solvent dichloromethane) and then dried. The chips were shot 8 at a time into bark beetle-infested spruce trees using a gas cramping device (Alsafix AGRAFEUSE SANS FIL 12GASCR). After 3 weeks, the bark in the region 10 to 50 cm above the shooting sites was removed and the feeding tunnels exposed.

## O=[N+]([O-])NC1=NCCN1Cc1ccc(Cl)nc1 [imidacloprid]
  living larvae in feeding tunnels: No living larvae were found
